What was measured:
K562 and MFL2 AML cells = test: LC3-II blot for induction of autophagy in AML cells; assay type: cell-based; details: CPI-613 200 μM, 4 hours
Excerpt: Complete media (“Full”) and Hank's Balanced Salt Solution medium (HBSS) were used as negative and positive controls of autophagy, respectively.

HS-MM cells [1] = test: DALGreen autophagy detection in HS-MM cells; assay type: cell-based; details: 16 hours
Protocol: HS-MM cells (Sonobe H. et al., J. Pathol., 1993, 169, 317-322; Sonobe H. et al., J. Pathol., 1999, 187, 594-597) were cultured with Dulbecco's modified Eagle's medium (DMEM; Gibco Life Technologies, Grand Island, N.Y., USA) containing 10% heat-inactivated fetal bovine serum (FBS). Cells were incubated with […] autophagy detection agent (Dojindo Co., Kumamoto, Japan) according to the manufacturer's protocol (https://www.dojindo.com/TechnicalManual/Manual_[…].pdf). The […]-treated cells were then incubated with vehicle (DMEM+10% heat-inactivated FBS containing the same amount of DMSO and distilled water present in the corresponding CPI-613 and chloroquine experiments), CPI-613 (added […] of a 5 mg/mL solution of CPI-613 in DMSO per mL of medium to provide a 1 μg/mL concentration of CPI-613 in the medium), or the combination of CPI-613 (1 μg/mL as above) and chloroquine (added 2 μL of a 5 mg/mL solution of chloroquine in distilled water per mL of medium to provide a 10 μg/mL concentration of chloroquine in the medium) at 37° C. under 5% CO2 for 16 hours, and then visualized under a confocal fluorescence microscope (Leica TCS SP8; Leica Corporation, Germany) and analyzed with a Guava Easy-Cyte cell analyzer ([…], Calif., USA).

[2] = tested on: human H460 NSCLC xenografts; test: Human non-small cell lung cancer xenograft, oral dosing; assay type: in vivo, CD1-Nu/Nu female mice; details: oral 100 mg/kg on day 8, 15, 22, 29 post implantation
Protocol: Human H460 NSCLC cells were obtained from American Type Cell Culture (ATCC) (catalog no. HTB-177, Manassas, Va.). These cells tested negative for viral contamination using the Mouse Antibody Production (MAP) test, performed by Charles River Labs Molecular Division, upon the receipt of the tumor cells from ATCC. The tumor cells were maintained at 37° C. in a humidified 5% CO2 atmosphere in T225 tissue culture flasks containing 50 mL of Roswell Park Memorial Institute (RPMI)-1640 solution with 10% Fetal Bovine Serum (FBS) and 2 mM L-glutamine. Cells were split at a ratio of 1:10 every 2-3 days by trypsinization and resuspended in fresh medium in a new flask. Cells were harvested for experiments in the same way at 70-90% confluency.
CD1-Nu/Nu female mice, ˜4-6 weeks old were obtained from Charles River Laboratories. Mice were housed 5 to a cage in a micro-isolator room in the Department of Animal Laboratory Research of New York State University (SUNY) at Stony Brook. Light-dark cycles were 12 h each daily, with light from 7 a.m. to 7 p.m. […]
An acclimation period of 7 days was allowed between the arrival of the animal at the study site before tumor inoculation and experimentation. […] Tumor dimensions (length and width) were measured daily before, during and after treatment (using Vernier calipers) and the tumor volume was calculated using the prolate ellipsoid formula: (length×width^2)/2. […]

[3] = tested on: BxPC-3 pancreatic cancer xenografts; test: Human pancreatic cancer xenograft, oral dosing; assay type: in vivo, CD-1 nude mice; details: oral dose of 100 mg/week for 4 weeks
Protocol: An acclimation period of 7 days was allowed between the arrival of the animal at the study site before tumor inoculation and experimentation. Mice were inoculated subcutaneously (SC) in the right flank with 2×10^6 human H460 NSCLC or BxPC3 pancreatic cancer cells that were suspended in 0.1 mL of Dulbeco's Phosphate Buffered Salt (PBS) solution using a 1 cc syringe with a 27-5/8 gauge needle. Tumor dimensions (length and width) were measured daily before, during and after treatment (using Vernier calipers) and the tumor volume was calculated using the prolate ellipsoid formula: (length×width^2)/2. Treatment with test or control articles began 8 days post tumor cell implantation when the tumor was approximately 300 mm^3.
A similar study was conducted in CD-1 nude mice (n=9) inoculated with 2×10^6 BxPC-3 cells. The study was initiated when tumors reached an average size of 150 mm^3 (day 0) and CPI-613 was administered at an oral dose of 100 mg/week for 4 weeks. A comparator arm (n=9) was conducted with IP treatment at a weekly dose of 25 mg/kg.

[4] = Plasma pharmacokinetics and oral bioavailability of formulations; parameters: species or system BALB/c nude mice; details: mouse, in vivo
Protocol: Six groups of 16 BALB/c nude mice (8 males and 8 females) per group were administered 6,8-bis-benzylthio-octanoic acid in six different ways: (1) 5 μL/g IV injection (tail vein) of the triethanolamine/dextrose aqueous solution of Example 18 (25 mg/kg; 5 mL/kg; Ex. 18A); (2) 5 μL/g IP injection of the triethanolamine/dextrose aqueous solution of Example 18 (25 mg/kg; 5 mL/kg; 18A); (3) 5 μL/g oral administration of the Eudragit L100 SDD suspension of Example 18 (100 mg/kg; 5 mL/kg; 18B); (4) 5 μL/g oral administration of the HPMCAS-M SDD suspension of Example 18 (100 mg/kg; 5 mL/kg; 18C); (5) 5 μL/g oral administration of the 20 mg/mL 6,8-bis-benzylthio-octanoic acid suspension of Example 18 (100 mg/kg; 5 mL/kg; 18D); or (6) 10 μL/g oral administration of the 10 mg/mL SOLUTOL solution of Example 18 (100 mg/kg; 10 mL/kg; 18E). In each experiment, about 80 μL of blood was collected from one subgroup of 4 male and 4 female mice at 0.083, 1, 4, and 24 hours after dosing, and from the other subgroup of 4 male and 4 female mice at 0.5, 2, and 8 hours. Plasma from the collected blood samples was analyzed by LC-MS/MS for the presence of 6,8-bis-benzylthio-octanoic acid.

[5] = Animal studies of IV administration (toxicity); assay type: in vivo
Protocol: CPI-613 must be administered IV, via an IV catheter that is free flowing and free of air in the dead space of the IV catheter, to minimize vascular irritation, inflammation and acute toxicity of CPI-613. […] To avoid local reactions at and around the site of administration, CPI-613 must be administered via a central venous catheter.
CPI-613 must not be administered as a bolus, but by infusion, at a rate of ˜0.5 mL/min, via a central venous catheter with D5W running at a rate of about 125-150 mL/hr. This is to minimize potential acute toxicity of CPI-613, according to animal studies.

[6] = Pardee et al., Clin Cancer Res. 2014; cited from earlier work
HS-MM cells [7] = test: Annexin V / propidium iodide cell death staining in HS-MM cells; assay type: cell-based; details: necrostatin-1 5, 10 or 50 μM with CPI-613 1 μg/mL + chloroquine 10 μg/mL
Protocol: HS-MM cells (Sonobe H. et al., J. Pathol., 1993, 169, 317-322; Sonobe H. et al., J. Pathol., 1999, 187, 594-597) were cultured with Dulbecco's modified Eagle's medium (DMEM; Gibco Life Technologies, Grand Island, N.Y., USA) containing 10% heat-inactivated fetal bovine serum (FBS). Cells were incubated with vehicle (DMEM+10% heat-inactivated FBS containing the same amount of DMSO and distilled water present in the corresponding CPI-613, chloroquine, and necrostatin-1 experiments), chloroquine (10 μg/mL), CPI-613 (1 μg/mL or 10 μg/mL), the combination of chloroquine (10 μg/mL) and CPI-613 (100 ng/mL, 1 μg/mL, or 10 μg/mL), or the combination of chloroquine (10 μg/mL) and CPI-613 (1 μg/mL) in the presence of necrostatin-1 (5 μM, 10 μM, or 50 μM), and then double stained with a fluorescein isothiocyante (FITC)-conjugated Annexin V and propidium iodide (PI) (PromoCell GMbH, Heidelberg, Germany) followed by analysis with a confocal fluorescence microscope and cell analyzer. The chloroquine and CPI-613 were added to the media from 5 mg/mL stock solutions in distilled water or DMSO, respectively, as in Example 11. The necrostatin-1 was added to the media from a 5 mg/mL stock solution in DMSO.

## O=C(O)CCCCC(CCSCc1ccccc1)SCc1ccccc1 (stereo not shown) [6,8-bis-benzylthio-octanoic acid]
K562 and MFL2 AML cells
  induction of autophagy (LC3-II blot): induces autophagy in AML cells
HS-MM cells [1]; CPI-613 1 μg/mL
  induction of autophagy (DALGreen fluorescence): induces autophagy in HS-MM cells
[2]
  tumor growth versus 5% dextrose or untreated: grew much more slowly
[3]
  tumor growth effect: especially pronounced
[4]
  oral bioavailability (conclusion in words): orally bioavailable
[5]; accidental co-administration of air during IV administration, animal studies
  acute toxicity with extra air in dead space of IV catheter: potential to induce acute toxicity
[5]; in vivo, iv
  local reaction on leakage into the perivascular space: can induce significant local inflammation
[6]
  half-life after IV dosing: 1 to 2 h

## CCN(CC)CCCC(C)Nc1ccnc2cc(Cl)ccc12 (stereo not shown) [chloroquine, reference compound]
HS-MM cells [1]; chloroquine 10 μg/mL with CPI-613 1 μg/mL
  blocking of CPI-613 autophagy induction: autophagy induction can be blocked

## CN1C(=O)C(Cc2c[nH]c3ccccc23)NC1=S (stereo not shown) [necrostatin-1]
HS-MM cells [7]
  effect on cell death induced by CPI-613 plus chloroquine: did not affect cell death
